From patent US20020111274A1, “1-alkyl-3-[1-(substituted phenyl) benzotriazol-6-yl] uracils” (BASF Aktiengesellschaft, priority 2000, published 2002)

Assays:
Parameters in all cases: scale not given here
[1] = system: ABUTH Velvetleaf; test: Postemergence herbicidal evaluation, ABUTH; assay type: in vivo, Abutilon theophrasti, Medic.; conditions: postemergence spray, rated about two-three weeks after treatment
Summary of the method: (§1)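 Plants are raised for roughly two weeks, then treated postemergence with compound dispersed in acetone/water (80/20) plus 1.0% seed oil adjuvant, at rates of about 0.006 kg to 0.400 kg per hectare. After greenhouse care, damage is scored two to three weeks later.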

[2] = system: AMBEL Ragweed, Common; test: Postemergence herbicidal evaluation, AMBEL; assay type: in vivo, Ambrosia artemisifolia, L.; conditions: postemergence spray, rated about two-three weeks after treatment
Summary of the method: as §1

[3] = system: CASOB Sicklepod; test: Postemergence herbicidal evaluation, CASOB; assay type: in vivo, Cassia obtusifolia, L.; conditions: postemergence spray, rated about two-three weeks after treatment
Summary of the method: as §1

[4] = system: CHEAL Lambsquarters, Common; test: Postemergence herbicidal evaluation, CHEAL; assay type: in vivo, Chenopodium album, L.; conditions: postemergence spray, rated about two-three weeks after treatment
Summary of the method: as §1

[5] = system: ECHOG Barnyardgrass; test: Postemergence herbicidal evaluation, ECHOG; assay type: in vivo, Echinochloa crus-galli, (L.) Beau; conditions: postemergence spray, rated about two-three weeks after treatment
Summary of the method: as §1

[6] = system: GALAP Galium; test: Postemergence herbicidal evaluation, GALAP; assay type: in vivo, Galium aparine; conditions: postemergence spray, rated about two-three weeks after treatment
Summary of the method: as §1

[7] = system: IPOHE Morningglory, Ivyleaf; test: Postemergence herbicidal evaluation, IPOHE; assay type: in vivo, Ipomoea hederacea, (L.) Jacq.; conditions: postemergence spray, rated about two-three weeks after treatment
Summary of the method: as §1

[8] = system: SETVI Foxtail, Green; test: Postemergence herbicidal evaluation, SETVI; assay type: in vivo, Setaria viridis, (L.) Beau; conditions: postemergence spray, rated about two-three weeks after treatment
Summary of the method: as §1

[9] = system: GLXMAW Soybean, Williams; test: Postemergence herbicidal evaluation, GLXMAW; assay type: in vivo, Glycine max, (L.) Merr. cv Williams; conditions: postemergence spray, rated about two-three weeks after treatment
Summary of the method: as §1

[10] = system: TRZAWR Wheat, Winter, cv Riband; test: Postemergence herbicidal evaluation, TRZAWR; assay type: in vivo, Triticum aestivum; conditions: postemergence spray, rated about two-three weeks after treatment
Summary of the method: as §1

[11] = system: ORYSAT Rice, Tebonnet; test: Postemergence herbicidal evaluation, ORYSAT; assay type: in vivo, Oryza sativa, (L.); conditions: postemergence spray, rated about two-three weeks after treatment
Summary of the method: as §1

[12] = system: ZEAMX Corn, Field; test: Postemergence herbicidal evaluation, ZEAMX; assay type: in vivo, Zea mays, L. (Sammel-Bezeichnung); conditions: postemergence spray, rated about two-three weeks after treatment
Summary of the method: as §1

[13] = system: ABUTH Velvetleaf; test: Preemergence herbicidal evaluation, ABUTH; assay type: in vivo, Abutilon theophrasti, Medic.; conditions: preemergence
Summary of the method: (§2)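 Seeds mixed with potting soil in cups, then sprayed preemergence with aqueous acetone test solution at about 0.013 to 0.800 kg per hectare equivalent. Cups kept under standard greenhouse care; plants rated on a visual scale four to five weeks after treatment.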

[14] = system: AMBEL Ragweed, Common; test: Preemergence herbicidal evaluation, AMBEL; assay type: in vivo, Ambrosia artemisifolia, L.; conditions: preemergence
Summary of the method: as §2

[15] = system: CASOB Sicklepod; test: Preemergence herbicidal evaluation, CASOB; assay type: in vivo, Cassia obtusifolia, L.; conditions: preemergence
Summary of the method: as §2

[16] = system: CHEAL Lambsquarters, Common; test: Preemergence herbicidal evaluation, CHEAL; assay type: in vivo, Chenopodium album, L.; conditions: preemergence
Summary of the method: as §2

[17] = system: ECHOG Barnyardgrass; test: Preemergence herbicidal evaluation, ECHOG; assay type: in vivo, Echinochloa crus-galli, (L.) Beau; conditions: preemergence
Summary of the method: as §2

[18] = system: GALAP Galium; test: Preemergence herbicidal evaluation, GALAP; assay type: in vivo, Galium aparine; conditions: preemergence
Summary of the method: as §2

[19] = system: IPOHE Morningglory, Ivyleaf; test: Preemergence herbicidal evaluation, IPOHE; assay type: in vivo, Ipomoea hederacea, (L.) Jacq.; conditions: preemergence
Summary of the method: as §2

[20] = system: SETVI Foxtail, Green; test: Preemergence herbicidal evaluation, SETVI; assay type: in vivo, Setaria viridis, (L.) Beau; conditions: preemergence
Summary of the method: as §2

[21] = system: GLXMAW Soybean, Williams; test: Preemergence herbicidal evaluation, GLXMAW; assay type: in vivo, Glycine max, (L.) Merr. cv Williams; conditions: preemergence
Summary of the method: as §2

[22] = system: TRZAWR Wheat, Winter, cv Riband; test: Preemergence herbicidal evaluation, TRZAWR; assay type: in vivo, Triticum aestivum; conditions: preemergence
Summary of the method: as §2

[23] = system: ORYSAT Rice, Tebonnet; test: Preemergence herbicidal evaluation, ORYSAT; assay type: in vivo, Oryza sativa, (L.); conditions: preemergence
Summary of the method: as §2

[24] = system: ZEAMX Corn, Field; test: Preemergence herbicidal evaluation, ZEAMX; assay type: in vivo, Zea mays, L. (Sammel-Bezeichnung); conditions: preemergence
Summary of the method: as §2

`C#CCOC(=O)COc1ccc(C)c(-n2nnc3cc(F)c(-n4c(=O)cc(C(F)(F)F)n(C)c4=O)cc32)c1` [Example 36] was tested, and the “Postemergence herbicidal rating ABUTH” value ([1]; 0.008 kg/ha) was 2.0, the “Postemergence herbicidal rating ABUTH” value ([1]; 0.016 kg/ha) was 7.0 and the “Postemergence herbicidal rating ABUTH” value ([1]; 0.032 kg/ha) was 9.0. The “Postemergence herbicidal rating ABUTH” value ([1]; 0.062 kg/ha) was 9.0, the “Postemergence herbicidal rating AMBEL” value ([2]; 0.008 kg/ha) was 2.0 and the “Postemergence herbicidal rating AMBEL” value ([2]; 0.016 kg/ha) was 4.0. The “Postemergence herbicidal rating AMBEL” value ([2]; 0.032 kg/ha) was 5.0, the “Postemergence herbicidal rating AMBEL” value ([2]; 0.062 kg/ha) was 5.0 and the “Postemergence herbicidal rating CASOB” value ([3]; 0.008 kg/ha) was 0.0. For the same compound, the “Postemergence herbicidal rating CASOB” value ([3]; 0.016 kg/ha) was 0.0, the “Postemergence herbicidal rating CASOB” value ([3]; 0.032 kg/ha) was 0.0 and the “Postemergence herbicidal rating CASOB” value ([3]; 0.062 kg/ha) was 0.0. For the same compound, the “Postemergence herbicidal rating CHEAL” value ([4]; 0.008 kg/ha) was 0.0, the “Postemergence herbicidal rating CHEAL” value ([4]; 0.016 kg/ha) was 0.0 and the “Postemergence herbicidal rating CHEAL” value ([4]; 0.032 kg/ha) was 2.0. For the same compound, the “Postemergence herbicidal rating CHEAL” value ([4]; 0.062 kg/ha) was 4.0, the “Postemergence herbicidal rating ECHCG” value ([5]; 0.008 kg/ha) was 0.0 and the “Postemergence herbicidal rating ECHCG” value ([5]; 0.016 kg/ha) was 0.0. For the same compound, the “Postemergence herbicidal rating ECHCG” value ([5]; 0.032 kg/ha) was 0.0, the “Postemergence herbicidal rating ECHCG” value ([5]; 0.062 kg/ha) was 3.0 and the “Postemergence herbicidal rating GALAP” value ([6]; 0.008 kg/ha) was 0.0. The “Postemergence herbicidal rating GALAP” value ([6]; 0.016 kg/ha) was 0.0, the “Postemergence herbicidal rating GALAP” value ([6]; 0.032 kg/ha) was 2.0 and the “Postemergence herbicidal rating GALAP” value ([6]; 0.062 kg/ha) was 3.0. For the same compound, the “Postemergence herbicidal rating IPOHE” value ([7]; 0.008 kg/ha) was 5.0, the “Postemergence herbicidal rating IPOHE” value ([7]; 0.016 kg/ha) was 8.0 and the “Postemergence herbicidal rating IPOHE” value ([7]; 0.032 kg/ha) was 9.0. The “Postemergence herbicidal rating IPOHE” value ([7]; 0.062 kg/ha) was 9.0, the “Postemergence herbicidal rating SETVI” value ([8]; 0.008 kg/ha) was 4.0 and the “Postemergence herbicidal rating SETVI” value ([8]; 0.016 kg/ha) was 4.0. For the same compound, the “Postemergence herbicidal rating SETVI” value ([8]; 0.032 kg/ha) was 7.0, the “Postemergence herbicidal rating SETVI” value ([8]; 0.062 kg/ha) was 9.0 and the “Postemergence herbicidal rating GLXMAW” value ([9]; 0.008 kg/ha) was 3.5. For the same compound, the “Postemergence herbicidal rating GLXMAW” value ([9]; 0.016 kg/ha) was 4.0, the “Postemergence herbicidal rating GLXMAW” value ([9]; 0.032 kg/ha) was 4.0 and the “Postemergence herbicidal rating GLXMAW” value ([9]; 0.062 kg/ha) was 4.5. The “Postemergence herbicidal rating TRZAWR” value ([10]; 0.008 kg/ha) was 4.5, the “Postemergence herbicidal rating TRZAWR” value ([10]; 0.016 kg/ha) was 5.0 and the “Postemergence herbicidal rating TRZAWR” value ([10]; 0.032 kg/ha) was 6.0. The “Postemergence herbicidal rating TRZAWR” value ([10]; 0.062 kg/ha) was 7.0, the “Postemergence herbicidal rating ORYSAT” value ([11]; 0.008 kg/ha) was 1.5 and the “Postemergence herbicidal rating ORYSAT” value ([11]; 0.016 kg/ha) was 1.0. The “Postemergence herbicidal rating ORYSAT” value ([11]; 0.032 kg/ha) was 2.5, the “Postemergence herbicidal rating ORYSAT” value ([11]; 0.062 kg/ha) was 4.0 and the “Postemergence herbicidal rating ZEAMX” value ([12]; 0.008 kg/ha) was 7.5. For the same compound, the “Postemergence herbicidal rating ZEAMX” value ([12]; 0.016 kg/ha) was 7.5, the “Postemergence herbicidal rating ZEAMX” value ([12]; 0.032 kg/ha) was 8.0 and the “Postemergence herbicidal rating ZEAMX” value ([12]; 0.062 kg/ha) was 8.5. The ABUTH herbicidal rating ([13]; rate 0.016 kg/ha) was 0.0, the ABUTH herbicidal rating ([13]; rate 0.032 kg/ha) was 1.5 and the ABUTH herbicidal rating ([13]; rate 0.062 kg/ha) was 3.0. The ABUTH herbicidal rating ([13]; rate 0.125 kg/ha) was 8.0, the AMBEL herbicidal rating ([14]; rate 0.016 kg/ha) was 0.0 and the AMBEL herbicidal rating ([14]; rate 0.032 kg/ha) was 2.0. It also gave an AMBEL herbicidal rating ([14]; rate 0.062 kg/ha) of 2.0, an AMBEL herbicidal rating ([14]; rate 0.125 kg/ha) of 5.0 and a CASOB herbicidal rating ([15]; rate 0.016 kg/ha) of 0.0. The CASOB herbicidal rating ([15]; rate 0.032 kg/ha) was 0.0, the CASOB herbicidal rating ([15]; rate 0.062 kg/ha) was 0.0 and the CASOB herbicidal rating ([15]; rate 0.125 kg/ha) was 0.0. The CHEAL herbicidal rating ([16]; rate 0.016 kg/ha) was 0.0, the CHEAL herbicidal rating ([16]; rate 0.032 kg/ha) was 6.5 and the CHEAL herbicidal rating ([16]; rate 0.062 kg/ha) was 9.0. The CHEAL herbicidal rating ([16]; rate 0.125 kg/ha) was 9.0, the ECHCG herbicidal rating ([17]; rate 0.016 kg/ha) was 0.0 and the ECHCG herbicidal rating ([17]; rate 0.032 kg/ha) was 0.0. It also gave an ECHCG herbicidal rating ([17]; rate 0.062 kg/ha) of 0.0, an ECHCG herbicidal rating ([17]; rate 0.125 kg/ha) of 0.0 and a GALAP herbicidal rating ([18]; rate 0.016 kg/ha) of 0.0. It also gave a GALAP herbicidal rating ([18]; rate 0.032 kg/ha) of 0.0, a GALAP herbicidal rating ([18]; rate 0.062 kg/ha) of 0.0 and a GALAP herbicidal rating ([18]; rate 0.125 kg/ha) of 0.0. The IPOHE herbicidal rating ([19]; rate 0.016 kg/ha) was 0.0, the IPOHE herbicidal rating ([19]; rate 0.032 kg/ha) was 0.0 and the IPOHE herbicidal rating ([19]; rate 0.062 kg/ha) was 0.0. It also gave an IPOHE herbicidal rating ([19]; rate 0.125 kg/ha) of 4.0, an SETVI herbicidal rating ([20]; rate 0.016 kg/ha) of 0.0 and an SETVI herbicidal rating ([20]; rate 0.032 kg/ha) of 0.0. It also gave an SETVI herbicidal rating ([20]; rate 0.062 kg/ha) of 0.0, an SETVI herbicidal rating ([20]; rate 0.125 kg/ha) of 3.0 and a GLXMAW herbicidal rating ([21]; rate 0.016 kg/ha) of 0.0. For the same compound, the GLXMAW herbicidal rating ([21]; rate 0.032 kg/ha) was 0.0, the GLXMAW herbicidal rating ([21]; rate 0.062 kg/ha) was 0.0 and the GLXMAW herbicidal rating ([21]; rate 0.125 kg/ha) was 0.0. It also gave a TRZAWR herbicidal rating ([22]; rate 0.016 kg/ha) of 0.0, a TRZAWR herbicidal rating ([22]; rate 0.032 kg/ha) of 0.0 and a TRZAWR herbicidal rating ([22]; rate 0.062 kg/ha) of 0.0. The TRZAWR herbicidal rating ([22]; rate 0.125 kg/ha) was 0.0, the ORYSAT herbicidal rating ([23]; rate 0.016 kg/ha) was 0.0 and the ORYSAT herbicidal rating ([23]; rate 0.032 kg/ha) was 0.0. It also gave an ORYSAT herbicidal rating ([23]; rate 0.062 kg/ha) of 1.0, an ORYSAT herbicidal rating ([23]; rate 0.125 kg/ha) of 1.5 and a ZEAMX herbicidal rating ([24]; rate 0.016 kg/ha) of 0.0. The ZEAMX herbicidal rating ([24]; rate 0.032 kg/ha) was 0.0, the ZEAMX herbicidal rating ([24]; rate 0.062 kg/ha) was 0.0 and the ZEAMX herbicidal rating ([24]; rate 0.125 kg/ha) was 0.0.
